Data from ChEMBL document CHEMBL3991601, “The target landscape of clinical kinase drugs” (Science, 2017).
The source made the active and inactive calls. For most assays here, no stated cut-off is given here; in the data, actives have a measured Kd and inactives only a lower limit.

How the values were obtained:
[1] = target: Mitogen-activated protein kinase 7 (Homo sapiens, UniProt Q13164)
[2] = target: Eukaryotic translation initiation factor 2-alpha kinase 1 (Homo sapiens, UniProt Q9BQI3)
[3] = target: T1, Ribosyldihydronicotinamide dehydrogenase [quinone] (Homo sapiens, UniProt P16083)
T1 sequence (P16083 whole entry): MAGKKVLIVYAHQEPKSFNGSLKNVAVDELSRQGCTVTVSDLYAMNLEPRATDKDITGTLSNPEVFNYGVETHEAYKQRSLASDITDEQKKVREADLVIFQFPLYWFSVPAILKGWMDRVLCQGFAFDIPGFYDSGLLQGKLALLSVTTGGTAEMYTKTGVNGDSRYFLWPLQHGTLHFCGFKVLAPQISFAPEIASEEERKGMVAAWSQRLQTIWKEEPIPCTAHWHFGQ

[4] = target: cAMP-dependent protein kinase type II-alpha regulatory subunit (Homo sapiens, UniProt P13861)
[5] = target: BMP-2-inducible protein kinase (Homo sapiens, UniProt Q9NSY1)
[6] = target: Platelet-derived growth factor receptor beta (Homo sapiens, UniProt P09619)
[7] = target: T2, Structural maintenance of chromosomes protein 1A (Homo sapiens, UniProt Q14683)
T2 sequence (Q14683 whole entry): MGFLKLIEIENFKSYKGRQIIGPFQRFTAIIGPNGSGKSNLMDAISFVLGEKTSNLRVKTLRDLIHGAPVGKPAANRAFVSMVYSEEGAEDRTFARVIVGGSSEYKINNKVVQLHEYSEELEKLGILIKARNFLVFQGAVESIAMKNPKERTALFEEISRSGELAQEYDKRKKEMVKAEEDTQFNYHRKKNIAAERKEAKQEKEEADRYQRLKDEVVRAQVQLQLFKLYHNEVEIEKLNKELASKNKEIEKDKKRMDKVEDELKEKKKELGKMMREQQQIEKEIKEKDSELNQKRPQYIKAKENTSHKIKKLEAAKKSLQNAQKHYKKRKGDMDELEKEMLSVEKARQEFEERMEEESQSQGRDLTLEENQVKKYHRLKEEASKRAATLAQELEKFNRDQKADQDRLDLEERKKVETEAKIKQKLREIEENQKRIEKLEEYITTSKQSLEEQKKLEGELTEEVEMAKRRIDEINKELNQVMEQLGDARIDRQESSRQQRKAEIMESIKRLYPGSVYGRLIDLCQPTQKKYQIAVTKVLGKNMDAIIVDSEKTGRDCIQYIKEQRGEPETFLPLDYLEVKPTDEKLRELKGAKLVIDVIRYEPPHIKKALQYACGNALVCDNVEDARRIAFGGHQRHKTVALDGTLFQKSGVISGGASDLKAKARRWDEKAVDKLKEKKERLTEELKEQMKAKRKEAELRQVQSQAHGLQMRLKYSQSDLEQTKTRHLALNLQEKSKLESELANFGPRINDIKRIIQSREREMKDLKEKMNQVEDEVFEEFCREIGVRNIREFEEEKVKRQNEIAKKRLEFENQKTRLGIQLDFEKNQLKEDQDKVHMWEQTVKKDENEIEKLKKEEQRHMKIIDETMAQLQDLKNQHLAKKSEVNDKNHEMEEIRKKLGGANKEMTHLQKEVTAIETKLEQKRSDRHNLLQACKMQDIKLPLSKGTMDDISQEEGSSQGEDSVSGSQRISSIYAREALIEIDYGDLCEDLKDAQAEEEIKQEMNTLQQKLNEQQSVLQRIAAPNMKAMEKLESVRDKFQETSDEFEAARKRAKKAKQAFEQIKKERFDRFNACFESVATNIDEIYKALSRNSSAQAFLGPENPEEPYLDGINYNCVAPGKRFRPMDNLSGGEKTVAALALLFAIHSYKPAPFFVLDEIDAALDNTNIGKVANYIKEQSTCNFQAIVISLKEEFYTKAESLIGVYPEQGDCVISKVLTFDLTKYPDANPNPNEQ

[8] = target: T3, EKC/KEOPS complex subunit TP53RK (Homo sapiens, UniProt Q96S44)
T3 sequence (Q96S44 whole entry): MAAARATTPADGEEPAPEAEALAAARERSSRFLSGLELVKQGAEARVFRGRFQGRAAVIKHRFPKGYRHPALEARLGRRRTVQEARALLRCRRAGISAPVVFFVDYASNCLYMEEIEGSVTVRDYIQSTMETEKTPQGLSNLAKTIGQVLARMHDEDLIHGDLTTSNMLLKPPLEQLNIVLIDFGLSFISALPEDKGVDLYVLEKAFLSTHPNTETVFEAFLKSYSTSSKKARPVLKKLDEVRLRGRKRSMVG

Aurora kinase B = Aurora kinase B (Homo sapiens, UniProt Q96GD4)
[9] = target: T4, Discoidin domain-containing receptor 2 (Homo sapiens, UniProt Q16832)
T4 sequence (Q16832 whole entry): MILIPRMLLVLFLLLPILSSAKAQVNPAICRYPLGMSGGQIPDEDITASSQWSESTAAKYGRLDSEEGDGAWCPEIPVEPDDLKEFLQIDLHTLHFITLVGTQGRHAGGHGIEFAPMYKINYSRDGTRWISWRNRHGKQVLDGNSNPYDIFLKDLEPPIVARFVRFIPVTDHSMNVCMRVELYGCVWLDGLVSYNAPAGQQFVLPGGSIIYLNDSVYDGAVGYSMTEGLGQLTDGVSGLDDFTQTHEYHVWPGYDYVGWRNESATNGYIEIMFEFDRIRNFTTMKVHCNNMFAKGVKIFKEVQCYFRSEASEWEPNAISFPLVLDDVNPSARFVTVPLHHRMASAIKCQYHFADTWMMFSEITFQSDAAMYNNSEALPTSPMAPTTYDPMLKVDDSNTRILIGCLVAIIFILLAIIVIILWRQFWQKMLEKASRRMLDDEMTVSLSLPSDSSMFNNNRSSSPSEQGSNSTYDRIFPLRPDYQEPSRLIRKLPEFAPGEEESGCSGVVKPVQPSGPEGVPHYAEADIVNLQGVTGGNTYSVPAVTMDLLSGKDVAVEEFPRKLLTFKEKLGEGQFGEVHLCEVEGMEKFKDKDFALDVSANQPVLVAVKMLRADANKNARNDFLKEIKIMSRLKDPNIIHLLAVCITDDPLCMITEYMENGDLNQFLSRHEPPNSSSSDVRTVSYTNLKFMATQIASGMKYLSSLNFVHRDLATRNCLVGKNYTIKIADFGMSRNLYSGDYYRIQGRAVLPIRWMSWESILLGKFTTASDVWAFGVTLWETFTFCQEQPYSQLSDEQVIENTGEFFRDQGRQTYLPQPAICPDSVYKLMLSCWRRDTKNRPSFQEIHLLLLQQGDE

Ephrin type-A receptor 7 = Ephrin type-A receptor 7 (Homo sapiens, UniProt Q15375)

Sequence of cAMP-dependent protein kinase type II-alpha regulatory subunit (P13861 whole entry): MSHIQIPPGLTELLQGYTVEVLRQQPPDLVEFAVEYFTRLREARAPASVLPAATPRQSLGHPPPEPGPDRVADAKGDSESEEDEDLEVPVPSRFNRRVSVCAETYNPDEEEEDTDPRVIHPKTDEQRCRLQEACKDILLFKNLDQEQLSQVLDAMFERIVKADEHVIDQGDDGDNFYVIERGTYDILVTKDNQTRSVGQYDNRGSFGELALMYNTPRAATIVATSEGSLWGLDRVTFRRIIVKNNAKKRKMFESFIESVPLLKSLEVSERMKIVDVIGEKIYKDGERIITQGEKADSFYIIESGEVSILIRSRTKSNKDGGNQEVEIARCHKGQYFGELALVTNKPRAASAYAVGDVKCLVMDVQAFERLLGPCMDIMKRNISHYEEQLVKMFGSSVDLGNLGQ
Sequence of Eukaryotic translation initiation factor 2-alpha kinase 1 (Q9BQI3 whole entry): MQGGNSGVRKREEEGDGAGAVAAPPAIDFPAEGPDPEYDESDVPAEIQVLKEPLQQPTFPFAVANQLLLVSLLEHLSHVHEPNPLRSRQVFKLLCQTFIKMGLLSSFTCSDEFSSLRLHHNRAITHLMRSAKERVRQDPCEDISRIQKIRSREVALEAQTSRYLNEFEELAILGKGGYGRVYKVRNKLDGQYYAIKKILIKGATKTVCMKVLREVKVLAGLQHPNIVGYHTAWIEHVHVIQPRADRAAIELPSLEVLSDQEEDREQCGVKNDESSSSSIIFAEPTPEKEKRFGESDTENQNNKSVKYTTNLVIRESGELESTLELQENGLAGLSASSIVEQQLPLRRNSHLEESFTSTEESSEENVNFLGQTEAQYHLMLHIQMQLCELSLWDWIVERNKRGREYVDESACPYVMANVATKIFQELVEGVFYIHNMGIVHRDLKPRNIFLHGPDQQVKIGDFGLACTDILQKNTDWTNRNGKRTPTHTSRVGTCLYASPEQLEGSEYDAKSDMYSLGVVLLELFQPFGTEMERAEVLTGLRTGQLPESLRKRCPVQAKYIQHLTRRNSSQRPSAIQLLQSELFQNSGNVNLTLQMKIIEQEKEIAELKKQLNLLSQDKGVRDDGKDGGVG
Sequence of Aurora kinase B (Q96GD4 whole entry, the tested form may be a part): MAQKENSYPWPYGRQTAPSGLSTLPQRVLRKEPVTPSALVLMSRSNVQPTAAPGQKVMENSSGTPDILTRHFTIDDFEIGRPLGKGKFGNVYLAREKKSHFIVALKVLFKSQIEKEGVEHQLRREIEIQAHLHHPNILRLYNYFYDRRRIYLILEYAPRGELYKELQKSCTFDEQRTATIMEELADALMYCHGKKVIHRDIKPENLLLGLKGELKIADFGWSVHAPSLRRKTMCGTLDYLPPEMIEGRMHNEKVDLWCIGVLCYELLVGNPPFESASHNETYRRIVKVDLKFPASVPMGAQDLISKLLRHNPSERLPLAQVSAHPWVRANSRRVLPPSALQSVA
Sequence of BMP-2-inducible protein kinase (Q9NSY1 whole entry): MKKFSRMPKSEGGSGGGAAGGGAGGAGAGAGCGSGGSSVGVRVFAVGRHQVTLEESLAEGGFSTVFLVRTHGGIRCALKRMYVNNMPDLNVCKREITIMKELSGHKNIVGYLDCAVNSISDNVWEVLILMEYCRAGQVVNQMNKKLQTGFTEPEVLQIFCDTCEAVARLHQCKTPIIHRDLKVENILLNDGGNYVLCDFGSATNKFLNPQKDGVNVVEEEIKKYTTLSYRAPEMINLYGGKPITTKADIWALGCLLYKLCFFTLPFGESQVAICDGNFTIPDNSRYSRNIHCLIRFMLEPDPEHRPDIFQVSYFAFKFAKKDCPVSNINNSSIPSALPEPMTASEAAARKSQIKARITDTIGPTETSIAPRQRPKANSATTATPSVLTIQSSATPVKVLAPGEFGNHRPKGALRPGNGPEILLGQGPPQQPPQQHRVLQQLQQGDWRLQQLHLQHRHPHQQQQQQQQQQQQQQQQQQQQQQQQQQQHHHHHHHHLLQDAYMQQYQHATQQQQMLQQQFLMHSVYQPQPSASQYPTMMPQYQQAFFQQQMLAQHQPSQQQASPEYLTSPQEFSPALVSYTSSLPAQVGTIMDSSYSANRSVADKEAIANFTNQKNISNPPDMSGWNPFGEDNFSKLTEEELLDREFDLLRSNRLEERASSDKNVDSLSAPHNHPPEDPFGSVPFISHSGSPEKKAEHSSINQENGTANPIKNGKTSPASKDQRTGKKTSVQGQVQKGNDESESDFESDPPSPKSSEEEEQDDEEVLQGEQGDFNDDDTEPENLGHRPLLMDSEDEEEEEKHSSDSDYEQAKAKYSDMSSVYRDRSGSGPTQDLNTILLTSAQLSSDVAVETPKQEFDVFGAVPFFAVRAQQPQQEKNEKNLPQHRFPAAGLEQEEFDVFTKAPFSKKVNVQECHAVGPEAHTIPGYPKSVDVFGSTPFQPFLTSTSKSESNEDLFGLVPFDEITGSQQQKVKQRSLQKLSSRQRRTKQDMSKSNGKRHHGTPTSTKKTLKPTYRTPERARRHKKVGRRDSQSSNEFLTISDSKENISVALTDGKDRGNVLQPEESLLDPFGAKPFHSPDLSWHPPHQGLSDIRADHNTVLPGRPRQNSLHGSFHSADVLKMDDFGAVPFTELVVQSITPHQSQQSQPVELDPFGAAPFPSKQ
Sequence of Platelet-derived growth factor receptor beta (P09619 whole entry): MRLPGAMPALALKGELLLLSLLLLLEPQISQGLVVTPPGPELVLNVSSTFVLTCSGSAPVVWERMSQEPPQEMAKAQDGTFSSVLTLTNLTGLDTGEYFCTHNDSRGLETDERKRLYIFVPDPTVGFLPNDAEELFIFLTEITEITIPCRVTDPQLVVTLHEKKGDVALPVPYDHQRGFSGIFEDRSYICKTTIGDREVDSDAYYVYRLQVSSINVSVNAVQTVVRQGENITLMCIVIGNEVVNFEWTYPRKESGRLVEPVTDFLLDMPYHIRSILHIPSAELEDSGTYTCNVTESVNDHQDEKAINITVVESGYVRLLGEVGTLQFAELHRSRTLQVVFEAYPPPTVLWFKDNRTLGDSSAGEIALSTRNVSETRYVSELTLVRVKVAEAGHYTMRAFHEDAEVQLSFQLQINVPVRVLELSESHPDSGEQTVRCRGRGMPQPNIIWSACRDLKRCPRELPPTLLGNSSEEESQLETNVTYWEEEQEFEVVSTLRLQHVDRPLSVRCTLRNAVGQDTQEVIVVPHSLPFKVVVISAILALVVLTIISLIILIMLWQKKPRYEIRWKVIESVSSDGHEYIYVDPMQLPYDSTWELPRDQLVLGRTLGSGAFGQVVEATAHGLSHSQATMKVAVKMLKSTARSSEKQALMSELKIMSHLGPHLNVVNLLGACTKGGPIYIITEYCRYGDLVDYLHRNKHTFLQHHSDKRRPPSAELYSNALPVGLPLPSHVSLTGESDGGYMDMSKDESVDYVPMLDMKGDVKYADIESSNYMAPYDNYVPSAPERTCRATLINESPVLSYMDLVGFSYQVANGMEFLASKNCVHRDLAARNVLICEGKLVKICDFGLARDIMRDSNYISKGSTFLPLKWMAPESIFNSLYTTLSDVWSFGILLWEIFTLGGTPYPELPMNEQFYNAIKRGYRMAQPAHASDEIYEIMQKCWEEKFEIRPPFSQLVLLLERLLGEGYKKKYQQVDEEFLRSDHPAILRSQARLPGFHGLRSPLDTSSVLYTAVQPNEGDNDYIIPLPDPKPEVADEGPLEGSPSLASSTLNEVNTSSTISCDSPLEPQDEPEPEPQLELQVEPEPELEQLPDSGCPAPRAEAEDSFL
Sequence of Mitogen-activated protein kinase 7 (Q13164 whole entry): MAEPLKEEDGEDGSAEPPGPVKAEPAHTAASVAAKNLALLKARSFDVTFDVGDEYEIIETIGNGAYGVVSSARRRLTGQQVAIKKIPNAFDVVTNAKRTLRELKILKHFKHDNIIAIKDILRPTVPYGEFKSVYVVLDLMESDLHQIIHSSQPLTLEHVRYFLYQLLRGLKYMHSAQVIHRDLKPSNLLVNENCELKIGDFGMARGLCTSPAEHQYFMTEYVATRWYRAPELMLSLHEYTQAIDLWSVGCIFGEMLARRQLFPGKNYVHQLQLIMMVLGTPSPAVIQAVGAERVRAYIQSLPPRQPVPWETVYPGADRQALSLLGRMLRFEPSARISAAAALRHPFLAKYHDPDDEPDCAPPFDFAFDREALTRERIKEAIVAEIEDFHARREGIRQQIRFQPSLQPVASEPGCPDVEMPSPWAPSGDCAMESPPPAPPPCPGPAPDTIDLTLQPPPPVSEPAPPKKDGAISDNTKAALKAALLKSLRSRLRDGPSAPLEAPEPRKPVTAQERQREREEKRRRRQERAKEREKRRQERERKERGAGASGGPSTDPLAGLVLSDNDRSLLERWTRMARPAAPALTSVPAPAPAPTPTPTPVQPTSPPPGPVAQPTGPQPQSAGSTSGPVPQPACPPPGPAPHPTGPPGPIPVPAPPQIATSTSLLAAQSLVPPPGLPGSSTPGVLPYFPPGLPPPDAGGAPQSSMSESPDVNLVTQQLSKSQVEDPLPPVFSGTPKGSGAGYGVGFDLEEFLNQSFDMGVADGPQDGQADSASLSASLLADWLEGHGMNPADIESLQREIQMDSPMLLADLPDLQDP

Kd [1] | Kd [2] | Kd [3] | Kd [4] | Kd [5] | Kd [6] | Kd [7] | Kd [8] | Kd (Aurora kinase B) | Kd [9] | Kd (Ephrin type-A receptor 7) | Structure (SMILES)
> 30 µM (inactive) | > 30 µM (inactive) | 3.7 µM (active) | > 30 µM (inactive) | > 30 µM (inactive) | > 30 µM (inactive) | > 30 µM (inactive) | > 30 µM (inactive) | 1.15 µM (active) | > 30 µM (inactive) |  | C[C@H]1CNCCCN1S(=O)(=O)c1cccc2cncc(F)c12
> 30 µM (inactive) | > 30 µM (inactive) | > 30 µM (inactive) | > 30 µM (inactive) | > 30 µM (inactive) |  | > 30 µM (inactive) | > 30 µM (inactive) | 0.059 µM (active) |  | > 30 µM (inactive) | CCNC(=O)C#Cc1ccc2c(c1)NC(=O)/C2=C(\Nc1ccc(CN(C)C)cc1)c1ccccc1
> 30 µM (inactive) | > 30 µM (inactive) | > 30 µM (inactive) | > 30 µM (inactive) | > 30 µM (inactive) |  | > 30 µM (inactive) | > 30 µM (inactive) | > 30 µM (inactive) | 0.139 µM (active) | > 30 µM (inactive) | Cc1nc2cc(-c3nn(C(C)C)c4ncnc(N)c34)ccc2o1
 |  | > 30 µM (inactive) | > 30 µM (inactive) |  |  | > 30 µM (inactive) | > 30 µM (inactive) |  |  |  | CNC(=O)c1ccccc1Sc1ccc2c(/C=C/c3ccccn3)n[nH]c2c1 [AXITINIB]
> 30 µM (inactive) | 1.82 µM | > 30 µM (inactive) | > 30 µM (inactive) | > 30 µM (inactive) | > 30 µM (inactive) | > 30 µM (inactive) | > 30 µM (inactive) | > 30 µM (inactive) | > 30 µM (inactive) |  | Cc1cc(C(=O)NOCCO)c(Nc2ccc(I)cc2F)n(C)c1=O [AZD-8330]
> 30 µM (inactive) | > 30 µM (inactive) | > 30 µM (inactive) | > 30 µM (inactive) | > 30 µM (inactive) |  | > 30 µM (inactive) | > 30 µM (inactive) | > 30 µM (inactive) | 0.183 µM (active) | > 30 µM (inactive) | COc1cc2ncnc(Oc3cccc(NC(=O)Nc4cc(C(C)(C)C(F)(F)F)on4)c3)c2cc1OC [CEP-32496]
> 30 µM (inactive) | > 30 µM (inactive) | > 30 µM (inactive) | > 30 µM (inactive) | > 30 µM (inactive) | > 30 µM (inactive) |  | > 30 µM (inactive) | > 30 µM (inactive) | > 30 µM (inactive) |  | C#Cc1cccc(Nc2ncnc3cc(OC)c(OCCCCCCC(=O)NO)cc23)c1 [CUDC-101]
 |  | > 30 µM (inactive) | > 30 µM (inactive) |  |  | > 30 µM (inactive) | > 30 µM (inactive) |  |  |  | C[C@@H](Oc1cc(-n2cnc3ccc(CN4CCN(C)CC4)cc32)sc1C(N)=O)c1ccccc1C(F)(F)F [GSK-461364]
> 30 µM (inactive) | > 30 µM (inactive) | > 30 µM (inactive) | > 30 µM (inactive) | > 30 µM (inactive) |  | > 30 µM (inactive) | > 30 µM (inactive) | 7.54 µM | 4.29 µM (active) | > 30 µM (inactive) | CNC(=O)c1nn(C)c2c1C(C)(C)Cc1cnc(Nc3ccc(N4CCN(C)CC4)cc3)nc1-2 [MILCICLIB]
 | 3.57 µM (active) | > 30 µM (inactive) | > 30 µM (inactive) | > 30 µM (inactive) |  | > 30 µM (inactive) | > 30 µM (inactive) |  | 0.669 µM (active) | > 30 µM (inactive) | NC(=O)c1c(OCc2c(F)cc(Br)cc2F)nsc1NC(=O)NCCCCN1CCCC1 [OSI-632]
2.96 µM | > 30 µM (inactive) | > 30 µM (inactive) | > 30 µM (inactive) | 0.015 µM (active) |  | > 30 µM (inactive) | > 30 µM (inactive) | 0.02 µM (active) | > 30 µM (inactive) | > 30 µM (inactive) | CC(=O)NCC(=O)N1[C@@H]2CC[C@H]1c1ccc(Nc3ncc(C(F)(F)F)c(NC4CCC4)n3)cc12 [PF-03814735]
 |  | > 30 µM (inactive) | > 30 µM (inactive) |  |  | > 30 µM (inactive) | > 30 µM (inactive) |  |  |  | O=C(NOCCO)c1cc(CN2OCCCC2=O)c(F)c(F)c1Nc1ccc(I)cc1F [RO-4987655]
 |  | > 30 µM (inactive) | > 30 µM (inactive) |  |  | > 30 µM (inactive) | > 30 µM (inactive) |  |  |  | N#CC[C@H](C1CCCC1)n1cc(-c2ncnc3[nH]ccc23)cn1 [RUXOLITINIB]

Structure (SMILES) | Kd [1] | Kd [2] | Kd [3] | Kd [4] | Kd [5] | Kd [6] | Kd [7] | Kd [8] | Kd (Aurora kinase B) | Kd [9] | Kd (Ephrin type-A receptor 7)
CC(C)(C)c1nc(-c2cccc(NS(=O)(=O)c3c(F)cccc3F)c2F)c(-c2ccnc(N)n2)s1 [DABRAFENIB] | > 30 µM (inactive) |  | > 30 µM (inactive) | > 30 µM (inactive) | > 30 µM (inactive) |  | > 30 µM (inactive) | > 30 µM (inactive) | > 30 µM (inactive) | > 30 µM (inactive) | > 30 µM (inactive)
Cn1cc(C2=C(c3cn(C4CCN(Cc5ccccn5)CC4)c4ccccc34)C(=O)NC2=O)c2ccccc21 [ENZASTAURIN] |  |  | > 30 µM (inactive) | > 30 µM (inactive) |  |  | > 30 µM (inactive) | > 30 µM (inactive) |  |  | 
CNC(=O)c1cc(Oc2ccc(NC(=O)Nc3cc(C(C)(C)C)nn3-c3ccc4ncccc4c3)c(F)c2)ccn1 [REBASTINIB] | > 30 µM (inactive) |  | > 30 µM (inactive) | > 30 µM (inactive) | > 30 µM (inactive) | > 30 µM (inactive) | > 30 µM (inactive) | > 30 µM (inactive) | > 30 µM (inactive) |  | 
CN1CCN(CCOc2cc(OC3CCOCC3)c3c(Nc4c(Cl)ccc5c4OCO5)ncnc3c2)CC1 [SARACATINIB] | > 30 µM (inactive) | > 30 µM (inactive) | > 30 µM (inactive) | > 30 µM (inactive) | > 30 µM (inactive) |  | > 30 µM (inactive) | > 30 µM (inactive) | > 30 µM (inactive) |  | > 30 µM (inactive)
